# Measured values published in patent US20250304620A1, “ANTIMICROBIAL PEPTIDE AND APPLICATION THEREOF” (priority 2023, published 2025).
# Marks after values point to notes of the source that are not given here. Non-standard residues stand in square brackets, D forms with d. Residues, ends and D or L forms follow the SMILES beside them. dPhe(4-Me) = Cc1ccc(C[C@@H](N)C(=O)O)cc1
# Legend:
# [1] = tested on: Staphylococcus aureus (NRS 384); details: NRS 384, 3 h
# Protocol: Trypsin (250 U/mg, pH=8.0) and AMPs (LV-1 to LV-30) were mixed in a ratio of 1:10 (w/w) and added to a reaction buffer (0.2 M sodium phosphate, 1 mM CaCl2), pH 7.5), and then incubated at 37° C. for 3 h.
# [2] = tested on: Bacillus subtilis ATCC 6633; format: cell-based
# Method in brief: (§1)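 CLSI microdilution, serial 2-fold dilutions; MIC read-out; n = 5 parallel repeats.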
# [3] = tested on: Pseudomonas aeruginosa ATCC 27853; format: cell-based
# Method in brief: as §1
# [4] = tested on: Candida glabrata ATCC 15126; format: cell-based
# Method in brief: as §1
# [5] = tested on: Candida albicans ATCC MYA-2876; format: cell-based
# Method in brief: as §1
# [6] = tested on: Klebsiella pneumoniae ATCC 700603; format: cell-based
# Method in brief: as §1
# [7] = tested on: Corynebacterium ATCC 7715; format: cell-based
# Method in brief: as §1
# [8] = tested on: Staphylococcus aureus ATCC 25923; format: cell-based
# Method in brief: as §1
# [9] = tested on: Salmonella typhimurium ATCC 14028; format: cell-based
# Method in brief: as §1
# Enterococcus ATCC 29212 = format: cell-based
# Method in brief: as §1
# [10] = tested on: Escherichia coli ATCC 25922; format: cell-based
# Method in brief: as §1
# [11] = tested on: Serratia marcescens ATCC 29021; format: cell-based
# Method in brief: as §1
# Candida utilis ATCC 9950 = format: cell-based
# Method in brief: as §1
# Candida krusei ATCC 6258 = format: cell-based
# Method in brief: as §1
# [12] = tested on: Trichophyton ATCC MYA-4438; format: cell-based
# Method in brief: as §1
# [13] = tested on: Candida tropicalis ATCC 750; format: cell-based
# Method in brief: as §1
# [14] = tested on: Shigella flexneri ATCC 12022; test: MIC against clinically common bacterial strain; format: cell-based
# Method in brief: as §1
# [15] = tested on: vancomycin-resistant Enterococcus (VRE); format: cell-based
# Method in brief: (§2)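 MICs determined by CLSI broth microdilution with serial twofold dilutions of the antimicrobial peptides against clinical drug-resistant isolates. Each determination was repeated 5 times in parallel.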
# [16] = tested on: carbapenem-resistant Klebsiella pneumoniae (CRKP); format: cell-based; details: carbapenem-resistant (CRKP)
# Method in brief: as §2
# [17] = tested on: carbapenem-resistant Escherichia coli (CREC); format: cell-based; details: carbapenem-resistant (CREC)
# Method in brief: as §2
# [18] = tested on: Methicillin-resistant Staphylococcus aureus (MRSA); format: cell-based; details: Methicillin-resistant
# Method in brief: as §2
# [19] = tested on: carbapenem-resistant Pseudomonas aeruginosa (CRPA); format: cell-based; details: carbapenem-resistant (CRPA)
# Method in brief: as §2
# [20] = tested on: Staphylococcus aureus (NRS 384); test: microbe, parasite or virus in culture; format: cell-based; details: NRS 384
# Method in brief: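 CLSI broth microdilution with serial twofold dilutions gave MICs against S. aureus NRS 384, with 5 parallel replicates. Levofloxacin and the AMP Cbf-K16 served as positive controls.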
# [21] = tested on: Pseudomonas aeruginosa ATCC 27853; test: Injectable formulations on mice infected with peritonitis; format: in vivo, ICR mice; details: 1 mg/kg via tail vein, twice a day for 3 days, n = 10
# Method in brief: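 ICR mice of both sexes (10 per group) infected intraperitoneally with 0.2 mL P. aeruginosa ATCC 27853 at 1×10^9 CFU/mL. Injectable formulations dosed by body weight via tail vein twice daily for 3 days; deaths and survival time recorded over 14 d.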
# [22] = Serum stability assay (residual level by RP-HPLC); details: human
smiles,measurement,setting,value
CC(=O)N[C@H](CCCNC(=N)N)C(=O)N[C@H](CCCCN)C(=O)N[C@H](CC(C)C)C(=O)N[C@H](CC(C)C)C(=O)N[C@H](Cc1ccc(C)cc1)C(=O)N[C@H](CCCCN)C(=O)N[C@H](CC(C)C)C(=O)N[C@H](CCCCN)C(=O)N[C@H](Cc1ccc(C)cc1)C(=O)N[C@H](CCCCN)C(=O)N[C@H](CCCNC(=N)N)C(N)=O [LV-11] (Ac-[dR][dK][dL][dL][dPhe(4-Me)][dK][dL][dK][dPhe(4-Me)][dK][dR]-NH2),Trypsin MIC,[1],1 µg/mL
same,MIC Bacillus subtilis ATCC 6633,[2],4 µg/mL
same,MIC Pseudomonas aeruginosa ATCC 27853,[3],2 µg/mL
same,MIC Candida glabrata ATCC 15126,[4],16 µg/mL
same,MIC Candida albicans ATCC MYA-2876,[5],8 µg/mL
same,MIC Klebsiella pneumoniae ATCC 700603,[6],4 µg/mL
same,MIC Corynebacterium ATCC 7715,[7],8 µg/mL
same,MIC Staphylococcus aureus ATCC 25923,[8],1 µg/mL
same,MIC Salmonella typhimurium ATCC 14028,[9],2 µg/mL
same,MIC Enterococcus ATCC 29212,Enterococcus ATCC 29212,2 µg/mL
same,MIC Escherichia coli ATCC 25922,[10],2 µg/mL
same,MIC Serratia marcescens ATCC 29021,[11],8 µg/mL
same,MIC Candida utilis ATCC 9950,Candida utilis ATCC 9950,8 µg/mL
same,MIC Candida krusei ATCC 6258,Candida krusei ATCC 6258,16 µg/mL
same,MIC Trichophyton ATCC MYA-4438,[12],8 µg/mL
same,MIC Candida tropicalis ATCC 750,[13],8 µg/mL
same,MIC Shigella flexneri ATCC 12022,[14],4 µg/mL
same,MIC VRE,[15],4 µg/mL
same,MIC CRKP,[16],8 µg/mL
same,MIC CREC,[17],2 µg/mL
same,MIC MRSA,[18],2 µg/mL
same,MIC CRPA,[19],4 µg/mL
same,MIC against Staphylococcus aureus (NRS 384),[20],1 µg/mL
same,Number of mice that died on each day after infection: day 1,[21],0 Mouse
same,Number of mice that died on each day after infection: day 2,[21],1 Mouse
same,Number of mice that died on each day after infection: day 3,[21],1 Mouse
same,Number of mice that died on each day after infection: day 4,[21],0 Mouse
same,Number of mice that died on each day after infection: day 5,[21],2 Mouse
same,Average survival times (Days),[21]; observed for 14 d,9.9**** Days
same,"remaining at 12 h, 0.91 mg/mL",[22],98.3%
